pIC50: −log10 of the molar value.
Tests used:
[1] = molecular target: purified recombinantly expressed human SSAO (Homo sapiens (Human), UniProt Q16853); assay: SSAO enzyme inhibition assay (HRP-coupled hydrogen peroxide detection or 14C-benzaldehyde detection, benzylamine substrate); assay type: biochemical; settings: SSAO inhibitory activity, human recombinant SSAO, RT
How it was run: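 Two read-outs at room temperature, each after ~15 min enzyme–inhibitor pre-incubation: 14C-benzaldehyde from 40 uM labelled benzylamine with 10 ug/ml enzyme, 1 h, PBS; or HRP-coupled H2O2 detection using 100 uM benzylamine, 1 ug/ml enzyme, pH 7.4 phosphate, read kinetically 1-2 h. Four-parameter logistic IC50s.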

[2] = molecular target: human ether a go-go related gene (hERG) K+ channel (Homo sapiens (Human), UniProt Q12809); assay: hERG assay, IonWorks patch clamp electrophysiology; assay type: cell-based; settings: Chinese Hamster Lung cell line stably expressing hERG; max assay concentration 11 uM
Experimental: Compounds of the invention were tested for inhibition of the human ether a go-go related gene (hERG) K^+ channel using IonWorks patch clamp electrophysiology. 8 Point concentration-response curves were generated on two occasions using 3-fold serial dilutions from the maximum assay concentration (11 uM). Electrophysiological recordings were made from a Chinese Hamster Lung cell line stably expressing the full length hERG channel. Single cell ion currents were measured in the perforated patch clamp configuration (100 ug/mL amphoterocin) at room temperature using an IonWorks Quattro instrument. The internal solution contained 140 mM KCl, 1 mM MgCl2, 1 mM EGTA and 20 mM HEPES and was buffered to pH 7.3. The external solution contained 138 mM NaCl, 2.7 mM KCl, 0.9 mM CaCl2, 0.5 mM MgCl2, 8 mM Na2HPO4 and 1.5 mM KH2PO4, and was buffered to pH 7.3. […] This sequence was repeated 5 times at a frequency of 0.25 Hz. Currents were measured from the tail step at the 5th pulse, and referenced to the holding current. Compounds were incubated for 6-7 min prior to a second measurement of the hERG signal using an identical pulse train. […] A control compound (quinidine) was used (see Table 20 below).

human ether a go-go related gene (hERG) K+ channel, sequence (Q12809 whole entry): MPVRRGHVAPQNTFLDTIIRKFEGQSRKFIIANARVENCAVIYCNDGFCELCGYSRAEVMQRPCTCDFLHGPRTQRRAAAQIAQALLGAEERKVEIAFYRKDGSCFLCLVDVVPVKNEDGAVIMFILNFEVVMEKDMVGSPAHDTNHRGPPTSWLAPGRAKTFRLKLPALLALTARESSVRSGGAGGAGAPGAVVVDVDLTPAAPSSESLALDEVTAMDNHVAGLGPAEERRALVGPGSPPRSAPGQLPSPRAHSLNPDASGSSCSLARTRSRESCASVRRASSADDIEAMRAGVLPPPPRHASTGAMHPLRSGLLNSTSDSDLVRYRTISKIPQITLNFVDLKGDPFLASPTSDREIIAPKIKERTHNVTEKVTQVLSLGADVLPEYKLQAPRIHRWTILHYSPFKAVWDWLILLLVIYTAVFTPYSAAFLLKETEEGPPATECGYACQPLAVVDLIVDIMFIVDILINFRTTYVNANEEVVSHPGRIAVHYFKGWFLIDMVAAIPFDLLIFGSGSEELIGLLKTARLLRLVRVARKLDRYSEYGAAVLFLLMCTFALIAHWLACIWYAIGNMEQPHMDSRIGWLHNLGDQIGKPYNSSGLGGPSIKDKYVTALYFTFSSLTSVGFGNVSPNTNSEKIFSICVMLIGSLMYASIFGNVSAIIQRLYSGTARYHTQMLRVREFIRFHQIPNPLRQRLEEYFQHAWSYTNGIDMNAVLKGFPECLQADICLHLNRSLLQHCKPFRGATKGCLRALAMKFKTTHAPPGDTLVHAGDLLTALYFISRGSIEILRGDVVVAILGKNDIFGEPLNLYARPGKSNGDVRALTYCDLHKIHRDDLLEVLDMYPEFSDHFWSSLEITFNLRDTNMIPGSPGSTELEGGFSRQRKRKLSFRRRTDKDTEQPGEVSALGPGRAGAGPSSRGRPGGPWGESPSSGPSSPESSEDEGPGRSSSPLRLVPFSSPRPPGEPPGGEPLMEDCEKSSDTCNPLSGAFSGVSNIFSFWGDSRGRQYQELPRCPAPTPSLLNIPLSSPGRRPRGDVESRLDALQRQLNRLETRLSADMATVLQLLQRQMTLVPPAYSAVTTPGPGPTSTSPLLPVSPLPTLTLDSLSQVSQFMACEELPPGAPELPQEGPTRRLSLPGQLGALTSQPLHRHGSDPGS
purified recombinantly expressed human SSAO, sequence (Q16853 29-763): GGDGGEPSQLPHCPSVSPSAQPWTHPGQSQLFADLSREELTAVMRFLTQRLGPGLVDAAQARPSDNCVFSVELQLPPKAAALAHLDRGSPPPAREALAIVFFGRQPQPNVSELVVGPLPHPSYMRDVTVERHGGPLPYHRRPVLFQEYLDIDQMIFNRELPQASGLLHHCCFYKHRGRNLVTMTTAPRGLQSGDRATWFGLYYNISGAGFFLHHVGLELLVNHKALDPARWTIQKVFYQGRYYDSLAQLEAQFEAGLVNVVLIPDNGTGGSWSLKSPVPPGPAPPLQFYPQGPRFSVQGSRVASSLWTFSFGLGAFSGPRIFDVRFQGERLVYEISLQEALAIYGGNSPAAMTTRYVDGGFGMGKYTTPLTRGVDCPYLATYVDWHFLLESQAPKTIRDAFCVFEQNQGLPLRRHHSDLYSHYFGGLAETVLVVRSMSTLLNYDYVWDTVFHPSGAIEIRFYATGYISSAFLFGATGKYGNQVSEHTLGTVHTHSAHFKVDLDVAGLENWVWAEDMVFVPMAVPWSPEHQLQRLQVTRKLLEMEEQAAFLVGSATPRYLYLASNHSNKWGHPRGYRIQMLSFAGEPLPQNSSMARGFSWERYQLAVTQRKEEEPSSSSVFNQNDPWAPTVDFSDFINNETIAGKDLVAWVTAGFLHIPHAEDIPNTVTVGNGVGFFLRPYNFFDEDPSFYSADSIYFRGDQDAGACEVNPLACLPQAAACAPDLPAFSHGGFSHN

In the case of `CC(=O)N1CCN(c2ccc(-c3nc4ccncc4n3-c3ccc(F)cc3)cn2)CC1` [Example 86, 1-(4-{5-[3-(4-Fluorophenyl)-3H-imidazo[4,5-c]pyridin-2-yl]pyridin-2-yl}piperazin-1-yl)ethan-1-one], the pIC50 [1] was greater than 7.30 and the pIC50 [2] was less than 5.00.
`CS(=O)(=O)N1CCN(c2ccc(-c3nc4ccncc4n3-c3ccc(F)cc3)cn2)CC1` [Example 89, 1-{5-[3-(4-Fluorophenyl)-3H-imidazo[4,5-c]pyridin-2-yl]pyridin-2-yl}-4-methanesulfonylpiperazine] showed a pIC50 [1] greater than 7.30 and a pIC50 [2] of less than 5.00.
For `NC(=O)N1CCN(c2ccc(-c3nc4ccncc4n3-c3ccc(F)cc3)cn2)CC1` [Example 92, 4-{5-[3-(4-Fluorophenyl)-3H-imidazo[4,5-c]pyridin-2-yl]pyridin-2-yl}piperazine-1-carboxamide], the pIC50 [1] was greater than 7.30 and the pIC50 [2] was less than 5.00.
Molecule `O=C1CN(c2ncc(-c3cc4ccncc4n3-c3ccc(Cl)cc3)cn2)CCN1` [Example 128, 4-{5-[1-(4-Chlorophenyl)-1H-pyrrolo[2,3-c]pyridin-2-yl]pyrimidin-2-yl}piperazin-2-one] has a pIC50 [1] greater than 7.30 and a pIC50 [2] of less than 5.00.
For `Cn1cncc1-c1cc2ccncc2n1-c1ccc(Cl)cc1` [Example 136, 5-[1-(4-Chlorophenyl)-1H-pyrrolo[2,3-c]pyridin-2-yl]-1-methyl-1H-im idazole], the pIC50 [1] was greater than 7.30 and the pIC50 [2] was 5.00 to 6.00.
